Test results from patent US12662451B2, “Chemical compounds and uses thereof” (GLAXOSMITHKLINE INTELLECTUAL PROPERTY (NO.4) LIMITED, priority 2023, dated 2026).

Biological target: T1, recombinant full-length WRN protein (1-1432) (Homo sapiens, UniProt Q14191)
T1 construct: recombinant full-length WRN protein (1-1432)
Assay: WRN unwinding activity, fluorogenic 384-well assay (Example A)
Type: biochemical
Settings: WRN unwinding activity, 4 hr; Table 2; read-out: 4 hr UNW pIC50 (converted)
Method: Functional WRN unwinding activity can be measured using a fluorogenic plate based 384 well assay configured to measure the separation of labeled double stranded DNA substrate. Compounds were dosed out in neat DMSO with a 1:3 serial dilution scheme. 100 nL of compound was stamped into Greiner low volume black assay plates (Greiner Cat #784076) using the Echo Acoustic Dispenser to generate assay ready plates. All solutions were prepared in assay buffer (25 mM TRIS (pH8.0), 5 mM NaCl, 2 mM MgCl2, 1 mM DTT, 0.05% BSA) for this 10 μL low volume reaction. To prepare the solutions, a 2×WRN Enzyme cocktail was made containing 200 pM of recombinant full-length WRN protein (1-1432). A 2× Substrate cocktail was made to consist of both 200 μM ATP (any ultrapure ATP sample) and 12 nM of the fluorescent quenched labeled double stranded DNA oligomer (IDT Custom synthesis; 5′-5IABkFQ (SEQ ID NO. 1)/GCACTGGCCGTCGTTTTACGGTCGTGACT-3′ (SEQ ID NO. 2): 5′-TTTTTTACTTAACGACGGCCAGTGC (SEQ ID NO. 3)/36-TAMTSP/-3′ (SEQ ID NO. 4)). To start the reaction, 5 μL of assay buffer was added to a single column to serve as the low control. Following this, 5 μL of 2×WRN Enzyme was added in all wells except the buffer low control wells. The reaction plate was covered and incubated at ambient temperature for 4 hours to allow for time dependent inhibition if it existed. After 4 hours, the addition of 5 μL of 2×-ATP/DNA substrate cocktail was added across all wells of the assay plate. This initiated the reaction, as the plate was incubated at ambient temperature for 60 minutes for the unwinding reaction to occur. A 10 mM EDTA solution was prepared and added at 5 μL across the entire plate after 60 minutes to quench the samples for an endpoint measurement. Fluorescent intensity was measured using excitation and emission wavelengths of 525 nm and 598 nm, respectively. High florescent intensity (DMSO with buffer) represents full inhibition of unwinding activity and low florescent intensity (DMSO with enzyme) represents no inhibition of unwinding activity. The potency of the compounds was determined using a four-parameter inhibition model to generate pIC50, Hill Slope, maximum inhibition (see Table 2).

T1 sequence (Q14191 whole entry): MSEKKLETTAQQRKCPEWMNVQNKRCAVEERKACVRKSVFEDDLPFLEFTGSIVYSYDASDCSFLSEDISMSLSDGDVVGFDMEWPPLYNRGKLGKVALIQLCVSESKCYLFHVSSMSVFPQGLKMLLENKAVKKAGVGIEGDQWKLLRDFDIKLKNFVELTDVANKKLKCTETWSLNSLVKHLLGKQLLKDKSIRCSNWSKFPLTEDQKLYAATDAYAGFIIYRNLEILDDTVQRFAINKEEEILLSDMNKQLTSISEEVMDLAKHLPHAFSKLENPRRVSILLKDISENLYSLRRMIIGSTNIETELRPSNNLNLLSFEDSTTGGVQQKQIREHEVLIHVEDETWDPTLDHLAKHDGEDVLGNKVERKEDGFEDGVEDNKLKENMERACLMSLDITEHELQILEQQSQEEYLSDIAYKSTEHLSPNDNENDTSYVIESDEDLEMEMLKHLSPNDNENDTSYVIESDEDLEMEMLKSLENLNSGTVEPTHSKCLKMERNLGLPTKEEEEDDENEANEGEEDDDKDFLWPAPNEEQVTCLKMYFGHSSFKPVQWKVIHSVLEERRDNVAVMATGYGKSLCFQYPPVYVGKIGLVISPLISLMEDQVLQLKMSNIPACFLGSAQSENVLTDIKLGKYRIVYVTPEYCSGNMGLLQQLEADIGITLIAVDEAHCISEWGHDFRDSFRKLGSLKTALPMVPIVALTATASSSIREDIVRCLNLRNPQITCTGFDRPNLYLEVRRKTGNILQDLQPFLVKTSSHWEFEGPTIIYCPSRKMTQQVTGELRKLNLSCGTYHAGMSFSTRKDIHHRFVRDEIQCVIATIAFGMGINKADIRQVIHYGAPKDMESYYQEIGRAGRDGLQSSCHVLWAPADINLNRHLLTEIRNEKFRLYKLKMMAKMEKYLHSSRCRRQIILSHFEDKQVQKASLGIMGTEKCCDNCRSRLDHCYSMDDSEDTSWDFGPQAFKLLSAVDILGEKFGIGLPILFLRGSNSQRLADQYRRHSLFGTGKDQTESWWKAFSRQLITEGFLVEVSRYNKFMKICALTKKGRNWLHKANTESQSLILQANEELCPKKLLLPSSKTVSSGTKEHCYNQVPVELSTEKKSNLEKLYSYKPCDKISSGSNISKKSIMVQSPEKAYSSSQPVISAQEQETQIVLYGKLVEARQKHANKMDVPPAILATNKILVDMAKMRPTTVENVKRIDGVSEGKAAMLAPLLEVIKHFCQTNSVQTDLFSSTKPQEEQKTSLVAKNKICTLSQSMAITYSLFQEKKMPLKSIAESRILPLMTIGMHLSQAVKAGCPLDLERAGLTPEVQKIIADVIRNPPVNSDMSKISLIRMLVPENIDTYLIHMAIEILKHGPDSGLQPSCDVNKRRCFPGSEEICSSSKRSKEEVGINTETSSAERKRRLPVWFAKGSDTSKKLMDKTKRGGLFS

IC50 [nM]	Structure (SMILES)
31.6	Cc1sccc1-c1ccc([C@H]2CCC[C@@H](C(=O)Nc3ccc(C(F)(F)F)cc3F)[C@@H]2C(=O)O)cc1 [Example 46, (1R,2R,6S)-2-((2-fluoro-4-(trifluoromethyl)phenyl)carbamoyl)-6-(4-(2-methylthiophen-3-yl)phenyl)cyclohexane-1-carboxylic acid]
794	Cc1nc2cc(S(=O)(=O)N3CCOc4cc([C@@H]5CCC[C@H](C(=O)Nc6ccc(C(F)(F)F)cc6F)[C@H]5C(=O)O)ccc43)ccc2n1C (single isomer, unassigned) [Example 242]
2000	Cc1nc2cc(S(=O)(=O)N(C)c3ccc([C@H]4C[C@@H](O)C[C@@H](C(=O)Nc5ccc(C(F)(F)F)cc5F)[C@H]4C(=O)O)cc3)ccc2n1C (single isomer, unassigned) [Example 142]
6310	O=C(O)[C@@H]1[C@@H](c2ccc(-c3ccc4nncn4n3)cc2)CCC[C@H]1C(=O)Nc1ccc(C(F)(F)F)cc1F [Example 30, (1R,2S,6R)-2-(4-([1,2,4]triazolo[4,3-b]pyridazin-6-yl)phenyl)-6-((2-fluoro-4-(trifluoromethyl)phenyl)carbamoyl)cyclohe xane-1-carboxylic acid]
100000	O=C(O)[C@@H]1[C@@H](c2ccc(CC3CCNCC3)cc2)CCC[C@H]1C(=O)Nc1ccc(C(F)(F)F)cc1F [Example 71, (1R,2R,6S)-2-((2-fluoro-4-(trifluoromethyl)phenyl)carbamoyl)-6-(4-(piperidin-4-ylmethyl)phenyl)cyclohexane-1-carboxylic acid]
126	Cc1nc2cc(S(=O)(=O)N(C)c3ccc([C@H]4CCC[C@@H](C(=O)Nc5ccc(C(F)(F)F)cc5F)[C@@H]4C(=O)O)cc3)ccc2[nH]1 (single isomer, unassigned) [Example 91]
316	C#CC(=O)N(C)c1ccc([C@H]2CCC[C@@H](C(=O)Nc3ccc(C(F)(F)F)cc3F)[C@@H]2C(=O)O)cc1 [Example 229, (1R,2R,6S)-2-((2-fluoro-4-(trifluoromethyl)phenyl)carbamoyl)-6-(4-(N-methylpropiolamido)phenyl)cyclohexane-1-carboxylic acid]
12.6	Cc1nc2cc(S(=O)(=O)N(C)c3ccc([C@H]4CCC[C@@H](CNc5ccc(C(C)C)cc5)[C@@H]4C(=O)O)cc3)ccc2n1C (racemic) [Example 200, rac-(1R,2R,6S)-2-(((4-isopropylphenyl)amino)methyl)-6-(4-((N,1,2-trimethyl-1H-benzo[d]imidazole)-5-sulfonamido)phenyl)cyclohexane-1-carboxylic acid]
5010	O=C(Nc1ccc(C(F)(F)F)cc1)[C@@H]1CCC[C@H](c2ccc(Br)cc2)[C@@]1(F)C(=O)O (racemic) [Example 243, rac-(1R,2S,6R)-2-(4-bromophenyl)-1-fluoro-6-((4-(trifluoromethyl)phenyl)carbamoyl)cyclohexane-1-carboxylic acid]
7.94	O=C(O)[C@@H]1[C@@H](c2ccc(-c3cccc(O)n3)cc2)CCC[C@H]1C(=O)Nc1ccc(C(F)(F)F)cc1F [Example 14, (1R,2R,6S)-2-((2-fluoro-4-(trifluoromethyl)phenyl)carbamoyl)-6-(4-(6-hydroxypyridin-2-yl)phenyl)cyclohexane-1-carboxylic acid]
501	O=C(O)[C@@H]1[C@@H](c2ccc(N3CCCCC3)cc2)CCC[C@H]1C(=O)Nc1ccc(C(F)(F)F)cc1F (racemic) [Example 222, rac-(1R,2R,6S)-2-((2-fluoro-4-(trifluoromethyl)phenyl)carbamoyl)-6-(4-(piperidin-1-yl)phenyl)cyclohexane-1-carboxylic acid]
39800	Cc1nc2cc(S(=O)(=O)N(C)c3ccc([C@H]4CCC[C@@H](C(=O)N[C@@H]5CCC[C@@H](C(F)(F)F)C5)[C@@H]4C(=O)O)cc3)ccc2n1C [Example 192, (1R,2R,6S)-2-(((1R,3R)-3-(trifluoromethyl)cyclohexyl)carbamoyl)-6-(4-((N,1,2-trimethyl-1H-benzo[d]imidazole)-5-sulfonamido)phenyl)cyclohexane-1-carboxylic acid]
